Data: patent US4605672A, “Diethylaminoalkoxybenzhydrol derivatives, process for their preparation and pharmaceutical compositions containing them” (Richter Gedeon Vegyeszeti Gyar Rt., priority 1982, dated 1986)

Key:
[1] = system: ethanolic narcosis; assay: Ethanolic narcosis period (ethanol 3.5 g./kg. i.p.); format: in vivo, Wistar rats; settings: 1 h before ethanol 3.5 g./kg. i.p., n=10, control = 100 ± 6.5
Description: The effect of the compounds according to the invention on ethanolic narcosis was tested on male and female Wistar rats, each weighing 160 to 180 g., in groups of 10. The animals were fasted for 16 hours prior to treatment and were then administered various doses of the test compound, orally. One hour after treatment the rats were treated with 3.5 g./kg. of ethanol intraperitoneally (i.p.). The narcosis period of the animals was measured from the elapse of the righting reflex until a spontaneous correction of the body position. The average of the narcosis period and the percentage difference from the control were calculated. […] The control group was treated with a placebo and a […]. dose of ethanol.

[2] = system: hyperactivity induced by ethanol; assay: Hyperactivity induced by ethanol (locomotor activity, Animex BSE motimeter); format: in vivo, BALB/c mice; settings: n=15
Description: The effect of the compounds on hyperactivity induced by ethanol was tested on male and female BALB/c mice, each weighing 16 to 18 g. The test materials were administered to groups of 15 orally, one hour before administering the placebo orally or a 2 g./kg. dose of ethanol intraperitoneally. The control animals were treated with the placebo. The locomotor activity of the animals was measured for two hours, using an Animex BSE motimeter.

[3] = system: ethanolic ataxia; assay: Ethanolic ataxia and muscular tension on rotating rod; format: in vivo, BALB/c mice; settings: n=10
Description: The effect of the compounds according to the invention on ethanolic ataxia and the change of muscular tension was tested on rotating rods. Trained and selected male and female BALB/c mice weighing 16 to 18 g. each were administered a 40 mg./kg. oral dose of the test compounds one hour before intraperitoneal administration of 2.5 g./kg. of ethanol. The time until the animals could remain on the rod was measured 60, 90 and 120 minutes after the ethanolic treatment. This time was 120 minutes for the animals with intact coordination. The results are summarized in Table 3, where the percentage of the animals remaining on the rotating rod is indicated.

[4] = system: catalepsy induced by tetrabenazine; assay: Inhibition of catalepsy induced by tetrabenazine; format: in vivo, Hann.-Wistar rats; settings: Rattus norvegicus, po; rats; orally, 60 minutes before tetrabenazine 30 mg./kg. i.p.; probit analysis
Description: (§1) To determine the antidepressive activity of the compounds provided by the invention the inhibition of catalepsy induced by tetrabenazine and the inversion of hypothermia induced by reserpin were measured. The anticholinergic activity was tested by determining the inhibition of tremor induced by oxotremorin. As a reference compound imipramine was used.

[5] = system: hypothermia induced by reserpin; assay: Inversion of reserpin-hypothermia (antireserpin activity); format: in vivo, male CFLP mice; settings: Mus musculus, po; mice; orally, 16 hours after reserpin 5 mg./kg. i.p.; dose increasing body temperature by 50%
Description: as §1
The inversion of reserpin-hypothermia was tested on male CFLP mice, weighing 18 to 22 g. each and treated with a 5 mg./kg. dose of reserpin intraperitoneally. 16 hours after treatment the animals were administered various doses of the test compounds, orally. The rectal temperature of the animals was measured before the reserpin treatment, 16 hours after treatment and 2 hours after the administration of the test compounds.

[6] = system: tremor induced by oxotremorin; assay: Anticholinergic activity: inhibition of tremor induced by oxotremorin; format: in vivo, male CFLP mice; settings: mice, oral; for ED50: Mus musculus, oxotremorin 0.5 mg./kg. i.p., read-out: Oxotremorin inh. (ED50); for Oxotremorin inh. (result in words): remark to the printed 160.0 mg./kg.
Description: as §1
The anticholinergic activity was tested on male CFLP mice, weighing 18 to 22 g. each, which were treated with a 0.5 mg./kg. dose of oxotremorin (i.p.) and after 60 minutes with various oral doses of the test compounds.

[7] = Acute toxicity; settings: rat, in vivo; rats; single 500 mg./kg. oral dose; observed for 14 hours; read-out: Toxicity, dead animals (%)
Description: The acute toxicity of the compounds according to the invention was determined on Hann.-Wistar rats of both sexes, weighing 160 to 180 g. each, which had been treated with a single 500 mg./kg. dose of the test compounds, orally. […] In Table 4 the percentage of the dead animals is given.

[8] = system: ethanolic narcosis; settings: known effect of the reference material; cited from earlier work

| SMILES | Ethanolic narcosis period (Control ± S.E. %) ([1]; 10.0 mg./kg. orally) [%] | Ethanolic narcosis period (Control ± S.E. %) ([1]; 40.0 mg./kg. orally) [%] | ED50 [4] [mg/kg] | ED50 [5] [mg/kg] | ED50 [6] [mg/kg] | Oxotremorin inh. (result in words) [6] | mortality at 14 h [7] [%] | also measured |
| --- | --- | --- | --- | --- | --- | --- | --- | --- |
| CCN(CC)CCCOc1ccc(C(O)(CC)c2cccc(C(F)(F)F)c2)cc1 (stereo not drawn) [A, 3-trifluoromethyl-4'-[3-(diethylamino)-propoxy]-α-ethyl-benzhydrol] | 52 ± 11.1 | 40 ± 5.0 | – | – | – | – | – | – |
| CCN(CC)CCOc1ccc(C(O)(CC)c2ccc(Cl)cc2)cc1 (stereo not drawn) [B, 4-chloro-4'-[2-(diethylamino)-ethoxy]-α-ethyl-benzhydrol] | 48 ± 9.5 | 39 ± 4.5 | – | – | – | – | – | Locomotor activity (2 hours) ([2]; compound 10.0 mg./kg. orally + ethanol 2000.0 mg./kg. i.p., ethanol + placebo 190 ± 12.2): 110 ± 8.1 percentage of the control; Locomotor activity (2 hours) ([2]; compound 10.0 mg./kg. orally + placebo (no ethanol), placebo control 100 ± 8.1): 110 ± 15.2 percentage of the control; % of the animals remaining on the rod ([3]; compound 40.0 mg./kg. orally + ethanol 2500.0 mg./kg. i.p., 60 minutes, ethanol alone 10): 40%; % of the animals remaining on the rod ([3]; compound 40.0 mg./kg. orally + ethanol 2500.0 mg./kg. i.p., 90 minutes, ethanol alone 40): 70%; % of the animals remaining on the rod ([3]; compound 40.0 mg./kg. orally + ethanol 2500.0 mg./kg. i.p., 120 minutes, ethanol alone 50): 90%; % of the animals remaining on the rod ([3]; compound 40.0 mg./kg. orally, no ethanol, 60 minutes): 100%; % of the animals remaining on the rod ([3]; compound 40.0 mg./kg. orally, no ethanol, 90 minutes): 100%; % of the animals remaining on the rod ([3]; compound 40.0 mg./kg. orally, no ethanol, 120 minutes): 100% |
| CCN(CC)CCOc1ccc(C(O)(CC)c2ccc(C(F)(F)F)cc2)cc1 (stereo not drawn) [C, 4-trifluoromethyl-4'-[2-(diethylamino)-ethoxy]-α-ethyl-benzhydrol] | – | – | 20 | 30 | 160 | ineffective | 0 | – |
| CCN(CC)CCCOc1ccc(C(O)(CC)c2cccc(Cl)c2)cc1 (stereo not drawn) [D, 3-chloro-4'-[3-(diethylamino)-propoxy]-α-ethyl-benzhydrol] | – | – | 18.8 | 17 | 160 | ineffective | 0 | – |
| CN(C)CCCN1c2ccccc2CCc2ccccc21 [Imipramine, reference compound] | – | – | 13.7 | 15 | 50 | – | 80 | – |
| N[C@@H](CS)C(=O)O [L-cysteine, reference compound] | – | – | – | – | – | – | – | Ethanolic narcosis period (Control ± S.E. %) ([1]; 500.0 mg./kg. orally): 63 ± 4.2%; alcoholic narcosis reducing effect [8]: known to have an alcoholic narcosis reducing effect |
